Article PMC4153739 (Biochemistry, 2012)

Assays:
[1] = test system: NR1–2a-containing NMDA receptor subtypes; format: cell-based, rat; settings: 10 µM
[2] = target: NR1-2b/NR2C NMDA receptor (Rattus norvegicus, UniProt P35439+Q00961); format: cell-based; settings: 10 µM
[3] = target: NR1-2b/NR2B NMDA receptor (Rattus norvegicus, UniProt P35439+Q00960); format: cell-based
[4] = target: NR1-2b/NR2D NMDA receptor (Rattus norvegicus, UniProt P35439+Q62645); format: cell-based; settings: 10 µM
[5] = test system: 6 Hz partial psychomotor seizure
[6] = format: physicochemical; settings: pH 7

Sequence of NR1-2b/NR2C NMDA receptor (Q00961 20-1237, other chains not shown): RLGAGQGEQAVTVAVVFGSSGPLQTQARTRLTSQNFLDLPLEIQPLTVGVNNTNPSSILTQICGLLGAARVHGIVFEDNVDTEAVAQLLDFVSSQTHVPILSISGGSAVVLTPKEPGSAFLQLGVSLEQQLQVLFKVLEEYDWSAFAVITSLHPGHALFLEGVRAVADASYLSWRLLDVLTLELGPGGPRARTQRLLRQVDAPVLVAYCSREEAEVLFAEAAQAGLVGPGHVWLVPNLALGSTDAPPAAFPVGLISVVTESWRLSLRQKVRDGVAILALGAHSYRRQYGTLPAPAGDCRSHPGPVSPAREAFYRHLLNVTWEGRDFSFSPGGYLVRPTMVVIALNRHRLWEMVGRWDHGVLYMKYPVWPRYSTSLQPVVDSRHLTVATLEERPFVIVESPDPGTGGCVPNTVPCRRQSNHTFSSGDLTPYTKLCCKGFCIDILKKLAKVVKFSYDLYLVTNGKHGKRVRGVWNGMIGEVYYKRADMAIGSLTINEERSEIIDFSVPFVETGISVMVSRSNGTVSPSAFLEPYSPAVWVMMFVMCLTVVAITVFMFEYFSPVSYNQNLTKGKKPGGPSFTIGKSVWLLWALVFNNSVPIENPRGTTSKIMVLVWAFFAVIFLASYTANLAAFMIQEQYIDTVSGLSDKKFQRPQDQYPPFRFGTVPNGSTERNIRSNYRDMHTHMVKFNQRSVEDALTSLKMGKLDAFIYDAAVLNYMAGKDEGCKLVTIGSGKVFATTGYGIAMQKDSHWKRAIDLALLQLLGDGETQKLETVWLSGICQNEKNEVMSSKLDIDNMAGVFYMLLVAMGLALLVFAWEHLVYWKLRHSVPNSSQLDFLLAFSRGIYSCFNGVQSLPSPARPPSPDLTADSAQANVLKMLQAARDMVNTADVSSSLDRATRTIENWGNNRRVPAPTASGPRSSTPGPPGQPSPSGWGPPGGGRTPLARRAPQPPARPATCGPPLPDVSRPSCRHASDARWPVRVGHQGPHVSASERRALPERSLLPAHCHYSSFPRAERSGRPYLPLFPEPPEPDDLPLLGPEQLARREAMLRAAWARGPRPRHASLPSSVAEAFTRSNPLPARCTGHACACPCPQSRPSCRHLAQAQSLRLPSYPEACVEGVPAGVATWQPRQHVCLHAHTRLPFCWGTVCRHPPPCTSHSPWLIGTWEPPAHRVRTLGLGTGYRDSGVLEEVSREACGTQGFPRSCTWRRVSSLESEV
Sequence of NR1-2b/NR2D NMDA receptor (Q62645 28-1323, other chains not shown): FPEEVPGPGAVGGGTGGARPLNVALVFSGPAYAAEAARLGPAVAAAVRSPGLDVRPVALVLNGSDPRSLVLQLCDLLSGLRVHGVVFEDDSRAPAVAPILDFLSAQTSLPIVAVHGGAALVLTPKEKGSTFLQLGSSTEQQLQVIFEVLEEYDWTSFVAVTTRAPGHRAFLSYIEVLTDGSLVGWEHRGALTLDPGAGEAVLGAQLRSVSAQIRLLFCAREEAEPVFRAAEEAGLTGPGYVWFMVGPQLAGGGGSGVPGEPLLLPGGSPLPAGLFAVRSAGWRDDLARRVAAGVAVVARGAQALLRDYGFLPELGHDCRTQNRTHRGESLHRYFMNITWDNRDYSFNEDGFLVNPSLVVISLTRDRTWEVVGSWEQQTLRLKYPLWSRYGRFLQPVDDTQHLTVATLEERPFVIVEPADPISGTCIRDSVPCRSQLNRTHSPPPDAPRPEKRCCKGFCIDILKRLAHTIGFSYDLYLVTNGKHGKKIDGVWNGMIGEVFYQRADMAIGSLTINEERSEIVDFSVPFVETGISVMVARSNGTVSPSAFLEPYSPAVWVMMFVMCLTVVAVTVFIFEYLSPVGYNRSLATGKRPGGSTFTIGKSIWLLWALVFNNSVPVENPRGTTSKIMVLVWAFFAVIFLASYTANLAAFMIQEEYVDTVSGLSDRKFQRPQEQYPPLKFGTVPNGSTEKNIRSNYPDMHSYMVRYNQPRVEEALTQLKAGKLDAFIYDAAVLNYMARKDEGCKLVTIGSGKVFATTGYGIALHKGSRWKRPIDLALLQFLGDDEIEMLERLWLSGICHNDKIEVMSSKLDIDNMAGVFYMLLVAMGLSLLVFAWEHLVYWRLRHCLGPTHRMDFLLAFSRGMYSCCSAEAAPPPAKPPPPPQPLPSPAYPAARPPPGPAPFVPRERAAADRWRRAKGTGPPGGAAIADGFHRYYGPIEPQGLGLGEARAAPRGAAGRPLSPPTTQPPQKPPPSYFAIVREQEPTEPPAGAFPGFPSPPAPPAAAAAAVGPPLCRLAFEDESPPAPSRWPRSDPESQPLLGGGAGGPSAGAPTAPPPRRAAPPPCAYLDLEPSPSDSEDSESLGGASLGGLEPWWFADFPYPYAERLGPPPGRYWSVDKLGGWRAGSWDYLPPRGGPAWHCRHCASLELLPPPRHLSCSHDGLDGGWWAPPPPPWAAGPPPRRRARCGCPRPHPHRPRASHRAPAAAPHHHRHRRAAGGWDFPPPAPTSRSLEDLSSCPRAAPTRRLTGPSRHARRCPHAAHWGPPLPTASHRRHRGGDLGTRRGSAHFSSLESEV
Sequence of NR1-2b/NR2B NMDA receptor (Q00960 27-1482, other chains not shown): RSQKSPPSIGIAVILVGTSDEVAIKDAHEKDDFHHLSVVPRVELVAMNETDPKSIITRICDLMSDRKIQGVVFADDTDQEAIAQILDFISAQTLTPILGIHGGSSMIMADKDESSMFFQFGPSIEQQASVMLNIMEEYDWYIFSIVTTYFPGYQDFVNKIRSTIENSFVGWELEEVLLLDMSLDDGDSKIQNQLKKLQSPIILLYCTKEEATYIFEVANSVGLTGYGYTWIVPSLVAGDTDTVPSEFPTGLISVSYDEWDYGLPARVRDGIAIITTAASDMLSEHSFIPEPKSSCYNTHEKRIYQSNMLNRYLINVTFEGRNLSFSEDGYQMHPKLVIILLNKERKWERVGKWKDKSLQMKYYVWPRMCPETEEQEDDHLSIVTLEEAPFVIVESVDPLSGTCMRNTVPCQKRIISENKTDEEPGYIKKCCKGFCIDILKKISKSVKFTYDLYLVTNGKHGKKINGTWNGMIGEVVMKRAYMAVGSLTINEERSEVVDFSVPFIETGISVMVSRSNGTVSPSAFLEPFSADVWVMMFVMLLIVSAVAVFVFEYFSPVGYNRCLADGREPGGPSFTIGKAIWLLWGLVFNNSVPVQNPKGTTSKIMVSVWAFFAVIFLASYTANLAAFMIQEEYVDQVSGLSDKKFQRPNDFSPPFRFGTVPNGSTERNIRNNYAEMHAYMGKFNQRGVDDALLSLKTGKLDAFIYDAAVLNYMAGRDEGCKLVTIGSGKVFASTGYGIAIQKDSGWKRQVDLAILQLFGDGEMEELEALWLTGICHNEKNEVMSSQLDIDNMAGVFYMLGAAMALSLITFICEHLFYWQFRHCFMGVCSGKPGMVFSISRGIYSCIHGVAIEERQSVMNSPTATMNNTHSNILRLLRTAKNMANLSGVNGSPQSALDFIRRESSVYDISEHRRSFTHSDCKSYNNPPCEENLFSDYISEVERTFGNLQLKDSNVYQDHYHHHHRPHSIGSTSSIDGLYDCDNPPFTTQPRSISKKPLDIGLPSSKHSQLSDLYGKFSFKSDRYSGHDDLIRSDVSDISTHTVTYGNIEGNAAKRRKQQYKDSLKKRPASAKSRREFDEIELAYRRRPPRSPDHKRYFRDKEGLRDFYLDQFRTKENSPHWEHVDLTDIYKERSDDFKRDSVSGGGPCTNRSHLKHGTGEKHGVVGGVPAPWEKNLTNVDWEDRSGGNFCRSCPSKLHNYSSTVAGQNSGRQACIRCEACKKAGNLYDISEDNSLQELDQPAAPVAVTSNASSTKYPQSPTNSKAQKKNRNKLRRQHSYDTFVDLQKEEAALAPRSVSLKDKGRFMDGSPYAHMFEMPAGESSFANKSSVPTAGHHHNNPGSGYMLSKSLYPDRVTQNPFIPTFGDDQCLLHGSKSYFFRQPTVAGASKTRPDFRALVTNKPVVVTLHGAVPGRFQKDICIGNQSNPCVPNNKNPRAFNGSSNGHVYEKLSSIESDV

## CC(C)C[C@H](NC(=O)[C@H](CC(C(=O)O)C(=O)O)NC(=O)[C@H](CCCNC(=N)N)NC(=O)[C@H](C)NC(=O)[C@H](Cc1ccccc1)NC(=O)[C@H](CC(C(=O)O)C(=O)O)NC(=O)[C@@H]1C[C@@H](O)CN1C(=O)[C@H](C)NC(=O)[C@H](CCCCN)NC(=O)[C@H](CC(C(=O)O)C(=O)O)NC(=O)[C@H](C)NC(=O)[C@H](CC(C)C)NC(=O)[C@H](CC(C(=O)O)C(=O)O)NC(=O)[C@H](CC(C(=O)O)C(=O)O)NC(=O)[C@H](CCC(=O)O)NC(=O)CN)C(=O)N[C@@H](C)C(=O)N[C@@H](CC(N)=O)C(N)=O [ConRl-B]
[1]
  potency on NR1-2a-containing subtypes: little or no potency
[2]
  antagonist activity at the highest concentration tested, NR2C: little or no antagonist activity
[3]
  discrimination between NR2B and all other NR2 subunits: at least 100 fold
[4]
  antagonist activity at the highest concentration tested, NR2D: little or no antagonist activity
[5]; mouse, in vivo
  rectal body temperature versus saline control group: did not differ between groups
[5]; n=8
  mice protected from seizures: 50%
[6]
  estimated helical content in the presence of calcium: 59%
  estimated percentage of helicity in the absence of calcium: 10%
  percent of helical transition induced by calcium: 49%
